Assay results taken from patent US5434295A (priority 1994, dated 1995).

Legend:
cannabimimetic activity = conditions: cited from earlier work
Rat brain NMDA receptors = test: Blockade of NMDA response in Xenopus oocytes injected with rat brain RNA; assay type: biochemical
From the text: Blockade of NMDA-induced voltage changes in Xenopus oocytes: Frog oocytes can be injected with genetic material from various species and organs, resulting in the expression of the various molecules encoded by this material in the oocyte. Injection of rat brain RNA provides active NMDA receptors on the ooctye surface. Application of NMDA results in changes in the electrical activity recorded from the oocytes. Various NMDA antagonists block the NMDA-induced changes in electrical activity and their potency and dose dependence in this system indicate their potency and mode of action as NMDA antagonists.
The oocyte is the most widely used system for studying the molecular, biophysical and pharmacological properties of expressed voltage- or transmitter-operated ion channels. This giant cell offers several advantages for this type of studies. It can be readily used for two-electrode voltage clamp studies, translates injected mRNA from different sources and functionally expresses the translated proteins, and it is also readily amenable for intracellular micron injections. Importantly, the recordings of neurotransmitter- or voltage-induced currents in a single oocyte are extremely stable and can performed repeatedly for 2-3 hours; this allows the performance of a full dose-response relation in single oocytes.
Rat brain NMDA receptors were expressed in Xenopus oocytes injected with total rat brain RNA. Dascal and Lotan. The conditions for injection culture and electrical recording from oocytes were as described by Dascal and Lotan (in: Methods in Molecular Biology, Longstaff and Revest, eds. Vol. 13, Chapter 13, Humana Press, N.J., 1992).
Briefly, female Xenopus were anesthetized by immersion in water containing 0.15% tricaine methanesulfonate and a small incision was made in the lower abdomen. Ovary fragments were removed into ND-96.
The oocytes were defolliculated by the collagenase treatment in order to remove the follicle cell layer. Defolliculated oocytes were injected with total rat brain RNA and incubated for 2-4 days at 22° C. in sterile NDE-96 solution. ND-96 solution contains (in mM): NaCl - 96, KCl - 2, CaCl2 - 1.8, Hepes - 5 (pH=7.4-7.6). NDE-96 contains in addition, 2.5 mM sodium pyruvate, 100 unit/ml penicillin, 100 μg/ml streptomycin. A single oocyte was placed in a 1 ml bath constantly superfused with ND-96 solution at room temperature. The cell was impaled with two microelectrodes and held at membrane potential of -60 mV using voltage clamp circuit.
RNA was extracted from the brain of 14-day old rat brain. Each oocyte was injected with 50 nl total RNA (4-8 mg/ml in water, stored at -80° C. in […] aliquots).
NMDA receptors were activated by application of NMDA with glycine in Mg-free ND-96 solution. It was shown previously and also observed in this study that the entry of calcium ions through the NMDA receptor-channel evokes a Ca-dependent Cl^- current which appeared as an early inward current peak preceding and overlapping the actual NMDA response and hindering a quantitative pharmacological study of NMDA antagonists. Experimental conditions were therefore worked out aimed at eliminating the Cl^- current. The best protocol employed the use of Ca-free, Ba-containing solution, avoiding repetitive application of antagonists, as well as other conditions including optimal perfusion rate and optimal intervals between repetitive NMDA applications.
Several NMDA receptor blockers were tested. These compounds have […] and have to be dissolved in 100% dimethyl sulfoxide (DMSO) and diluted for use in ND-96 that contained 1% DMSO. Therefore, the effect of 1% DMSO on the response to 10^-4 M NMDA and 5×10^-6 M glycine was examined. DMSO had no effect on NMDA response in three different cells.
Eight putative NMDA antagonists of the HU group, including 270, 271 and 259 were tested for anti-NMDA activity at a glutamate receptor. […]

[1] = tested on: intraocular pressure (IOP); test: Ocular hypotensive activity (intraocular pressure) in albino rabbits; assay type: in vivo, albino rabbit; conditions: for Max ΔIOP: ** drug vs. vehicle P < 0.01
Experimental: Bicyclic compounds of the present invention were also tested for IOP lowering effects.
Sci., 82, 1069-1079 (1993).
The phospholipids and HU-259 were dissolved in the stabilized oily phase. The other excipients were dissolved in the aqueous phase. Both phases were heated separately to 70° C. and dispersed by a magnetic stirrer. Emulsification was completed using a "high speed mixer" for 5 min at 85° C. The resulting emulsion was cooled rapidly below 20° C. and homogenized using a two-stage homogenizing valve assembly (Gaulin Homogenizer, APV Gaulin, Hilversum, The Netherlands) for 5 min. All the manufacturing procedures were carried out under aseptic conditions and a nitrogen atmosphere. The pH was adjusted to 7.4 using a sodium hydroxide solution (10%). The final fine emulsion was filtered to achieve sterility and stored in ampoules. A typical formulation (%, w/w) consisted of the following: HU-259, 0.2%; oily phase, 20.0%; purified fractionated egg phospholipids, 1.2%; nonionic emulsifier, 2%; glycerin, 2.25%; α-tocopherol, 0.02%; methyl and butyl p-hydroxy- benzoic ester, 0.3 and 0.075%, respectively; and water for injection, to 100.0 g. The control emulsion vehicle was prepared using identical experimental conditions but without drug.
IOP was measured by using a pneumatonometer (Digilab T30). Pressure readings were calibrated for verification every 6 h. One drop (50 μl) of local anesthetic (Benoxinate HCl, 0.4% Fischer [Isr] diluted 1:3 with sterile saline) was instilled into each eye prior to IOP measurements.

[2] = molecular target: MK-801 sites located at the NMDA receptor ion channel; test: Inhibition of [3H]MK-801 binding to rat forebrain membranes
From the text: Binding to the NMDA receptor linked channel: Non competitive antagonists of NMDA, the primary example of which is the compound MK-801, bind to a site within the NMDA receptor channel thus preventing the activation of the receptor-channel complex and the consequent neurotoxicity. The ability of various compounds to compete with the binding of tritium labeled MK-801 to brain membranes is considered a measure of their potency as NMDA non-competitive antagonists.
The association of pinene derivatives with acetylcholine-muscarinic receptor and with MK-801 sites located at the NMDA receptor ion channel.
Inhibition of ^3 [H]MK-801 binding to rat forebrain membranes by the test HU-211 compounds was carried out as described for HU-211 in Eshhar et al., NeuroReport 5, No. 3, 1993) (Methods section). The test compounds were solubilized in a mixture of ethanol:Emulfor:water (20:3:57).

GABA receptors = test: Effect on GABA responses in oocytes; assay type: biochemical, rat
AMPA/kainate receptors = test: Effect on kainate responses in oocytes; assay type: biochemical, rat
[3] = tested on: voltage-dependent P-type calcium channels; test: Inhibition of voltage-dependent P-type calcium channels expressed in oocytes; assay type: biochemical, rat
cannabinoid receptors = conditions: Devane et al. 1992; cited from earlier work
[4] = tested on: NMDA-induced tremor, seizures and lethality in mice; conditions: Feigenbaum et al. 1989; cited from earlier work
[5] = tested on: rat brain cortical membrane preparations; conditions: cited from earlier work
[6] = tested on: NMDA receptor linked ion channel; conditions: Nadler et al. 1993; cited from earlier work
[7] = tested on: closed head injury, a model of head trauma; conditions: Shohami et al. 1993; cited from earlier work
[8] = tested on: CA1 hippocampal region in gerbils; conditions: injected after the ischemic insult; Bar-Joseph et al. 1993; cited from earlier work
[9] = tested on: intraocular pressure (IOP); conditions: in vivo; cited from earlier work
NMDA toxicity in mice = test: Prevention of NMDA neurotoxicity in mice (neurological scores); assay type: in vivo, mice (Balb/C); conditions: for maximum improvement of neurological scores: NMDA 60 mg/kg s.c., i.p. or i.v. pretreatment; for neurological scores/symptoms after NMDA toxicity: pretreated mice
From the text: Blockade of NMDA toxicity in mice: Subcutaneous injection of NMDA in mice results in a dose-dependent increase in the number, severity and duration of several neurological symptoms, culminating in death at the higher dose range. The symptoms include tail flicks, circling, tremor and convulsions. The ability of various compounds, when administered to mice prior to NMDA, to reduce the number and severity of these symptoms is a considered a measure of their potency in preventing NMDA behavioral toxicity in vivo.
Test drugs were administered intraperitoneally at the stipulated doses in a solution of MCT oil. Each point represents the mean scores of eight mice treated with the drug compared to the same number of control animals receiving the vehicle alone.
Test compounds were administered at a standard dose of 10 mg/kg either intraperitoneally (in MCT oil) or intravenously (in a submicronized emulsion).
(§1) Bicyclic compounds of the present invention were tested for their ability to block NMDA toxicity in mice. Balb/C mice received NMDA by subcutaneous injection at a dose of 60 mg/kg which was determined to be the LD20 dose of this substance. Thirty minutes prior to injection of the neurotoxin the animals received either (a) an intravenous injection of the test drug formulated in submicronized emulsion as described in Example 11); (b) an intraperitoneal injection of the test drug dissolved in MCT oil; (c) or the appropriate vehicle alone (control groups). The improvement rate afforded by the test drug was defined as the difference between scores of animals receiving the formulated drug and those receiving the vehicle alone. The doses tested for HU-254, HU-259 and HU-260 ranged from 5 to 30 mg/kg.
At least 6-8 mice were included per test group. The materials were tested in a masked study to preclude bias of the observer of clinical symptoms.
The behavioral scoring method (tabulated above) was used as the basic quantitative procedure for evaluating the level of NMDA or kainic acid neurotoxicity in mice. The neurological clinical status of each animal was calculated by totalling the scores of all signs that were evident throughout the study. Duration of symptoms was also taken into account.
If duration of a neurological system is up to 30 seconds, the score is s-1. Duration between 0.5-3.0 mins, the score is s. Duration longer than 3 mins, the score is s+1.

[10] = tested on: acetylcholine-muscarinic receptor; assay type: binding, rat; conditions: 100 μM analogue
Balb/C mice = test: Lethality of subcutaneous NMDA in mice; assay type: in vivo; conditions: subcutaneous injection
Experimental: as §1

CCCCCCC(C)(C)c1ccc([C@@H]2C[C@H](O)CC[C@H]2CCCO)c(O)c1 [CP-55940]
cannabimimetic activity (cannabimimetic activity): found to produce cannabimimetic effects

CCCCCCC(C)(C)c1cc(O)c2c(c1)OC(C)(C)[C@@H]1CC=C(CO)C[C@@H]21 [HU-210, 1,1 dimethylheptyl (DMH) homolog of [3R,4R]-7-hydroxy Δ^6 THC, reference compound]
% inhibition of NMDA (Rat brain NMDA receptors; 10 μM): 0% | inhibitory effects on NMDA response (Rat brain NMDA receptors; concentrations up to 10 μM): did not have any inhibitory effects | cannabimimetic activity (cannabimimetic activity): two orders of magnitude higher than the natural Δ^1 THC

CCCCCCC(C)(C)c1cc(O)c2c(c1)OC(C)(C)[C@H]1CC=C(CO)C[C@H]21 [HU-211, 7-hydroxy-Δ^6-tetrahydrocannabinol 1,1-dimethylheptyl, reference compound]
AUC (from instillation of treatment until return to baseline IOP) ([1]; contralateral eye): -4.9 ± 7.0 mmHg × hrs | Max ΔIOP ([1]; contralateral eye): -2.0 ± 1.1 mmHg | AUC (from instillation of treatment until return to baseline IOP) ([1]; treated eye): -9.5 ± 6.0 mmHg × hrs | Max ΔIOP ([1]; treated eye, single dose 0.2% emulsion): -2.9 ± 0.7 mmHg | % inhibition of NMDA (Rat brain NMDA receptors; 1 μM): 32% | % inhibition of NMDA (Rat brain NMDA receptors; 10 μM): 47% | mode of NMDA antagonism (Rat brain NMDA receptors; Lineweaver-Burke analysis): non-competitive NMDA antagonists | concentration at which inhibitory activity was first apparent (Rat brain NMDA receptors; NMDA response): 10 nM | Ki ([2]; [3H]MK801 binding, rat forebrain membranes, representative experiment in triplicate (HU259), read-out: inhibition constant (K1)): 11.3 µM | effect on GABA responses (GABA receptors): no effect | effect on kainate responses (AMPA/kainate receptors): no effect | inhibition of activity of voltage-dependent P-type calcium channels [3]: did not inhibit | affinity to the cannabinoid receptors (cannabinoid receptors): very low affinity | cannabimimetic activity (cannabimimetic activity): inactive as a cannabimimetic | block of NMDA-induced tremor, seizures and lethality [4]: block NMDA-induced tremor, seizures and lethality in mice | increase in binding of [3H]TCP induced by polyamines, glutamate or glycine [5]: blocked the increase in binding | NMDA induced uptake of 45Ca++ ions [6]: block the NMDA induced uptake | extent of edema formation and overall neurological damage [7]: significantly reduced | neuronal cell damage in CA1 hippocampal region [8]: prevent neuronal cell damage | lowering of intraocular pressure [9]: lowering of intraocular pressure (IOP)

CCCCCCC(C)(C)c1cc(OC(C)=O)c([C@H]2C=C(COC(C)=O)[C@H]3C[C@@H]2C3(C)C)c(OC(C)=O)c1 [HU-254]
maximum improvement of neurological scores (NMDA toxicity in mice): 30-40% | maximum improvement rate on the neurological scores (NMDA toxicity in mice; i.p. dose of 20 mg/kg): 25% | effect of route of administration on performance (NMDA toxicity in mice; i.v. vs i.p.): significantly enhanced by i.v. administration | neurological scores/symptoms after NMDA toxicity (NMDA toxicity in mice): improvement in neurological scores | % inhibition of tritiated ligand binding to membranes, 3[H]QNB [10]: 96.1% | % inhibition of tritiated ligand binding to membranes, 3[H]-MK-801 ([2]; 100 μM analogue): 5.3%

CCCCCCC(C)(C)c1cc(OC(C)=O)c([C@H]2C=C(CO)[C@H]3C[C@@H]2C3(C)C)c(OC(C)=O)c1 [HU-260]
maximum improvement of neurological scores (NMDA toxicity in mice): 30-40% | neurological scores/symptoms after NMDA toxicity (NMDA toxicity in mice): improvement in neurological scores

CN[C@H](CC(=O)O)C(=O)O [NMDA, N-methyl-D-aspartate]
LD20 dose (Balb/C mice): 60 mg/kg

COc1ccc(C(=O)c2c(C)n(CCN3CCOCC3)c3ccccc23)cc1 [pravadoline]
cannabimimetic activity (cannabimimetic activity): found to produce cannabimimetic effects
